Holding throughout (type): biochemical
One test deals with T1, VWF (Homo sapiens, UniProt P04275).
T1 construct: Cleavage of VWF by ADAMTS13 in citrated pooled normal plasma; tissue Precision BioLogic; host or cells: citrated pooled normal plasma, diluted 10-fold
Nature of the test: Cleavage of VWF by endogenous ADAMTS13 in citrated pooled normal plasma, multimer pattern on agarose gel. As to the method: Cleavage of VWF by ADAMTS13 in citrated pooled normal plasma was examined by incubating 10-fold diluted plasma at 37° C. for various times. Monoclonal ADAMTS13 antibody or control antibody (final concentration: 20 μg/ml) was added to an aliquot of the diluted plasma. ADAMTS13 cleavage was stopped at indicated times with EDTA.
(§1) The VWF multimer pattern was evaluated by 1.5% agarose gel electrophoresis followed by Western blotting with a HRP-conjugated polyclonal VWF antibody (Dako, Inc., Carpinteria, Calif.) previously described (Chen et al., J Clin Invest, Submitted (2010)).

A further test concerns A1A2 fragment. Nature of the test: ADAMTS13 cleavage of recombinant VWF fragment A1A2 (SDS-PAGE, western blotting). As to the method:
(§2) Plasma VWF was purified from cryoprecipitate as described previously (Chen et al., Blood, 115(3):706-712 (2010)). Cleavage of recombinant VWF fragments by ADAMTS13 was carried out at 37° C. for 5 hours with or without modulators. The reactions were stopped by EDTA (final concentration 10 mM). Cleavage products were analyzed by electrophoresis in 4-15% gradient polyacrylamide gels (Bio-Rad Laboratories, Hercules, Calif.) after reduction. Cleavage products were transferred onto nitrocellulose membranes, blocked with 1% albumin in Tris-buffered saline with 0.05% Tween-20, probed with HRP-conjugated streptavidin (Thermal Scientific, Rockford, Ill.), and visualized with the Immobilon Western HRP substrate (Millipore).
(§3) Cleavage of recombinant VWF fragments (1 μg/ml) by ADAMTS13 (0.15 μg/ml) was carried out at 37° C. for 5 hours in the presence of either 1.5 M urea, or 1.5 mg/ml ristocetin. The reactions were stopped by EDTA. Cleavage products were analyzed by electrophoresis in 4-15% gradient polyacrylamide gels after reduction. Cleavage products were transferred onto nitrocellulose membranes, blocked with 1% albumin in Tris-buffered saline with 0.05% Tween-20, probed with HRP-conjugated streptavidin, and visualized with the Immobilon Western HRP substrate.
On the technique in general: Immunoblotting shows a protein as a band on a membrane.

In test [1] the target is T2, purified multimeric plasma VWF (Homo sapiens, UniProt P04275).
T2 construct: Plasma VWF was purified from cryoprecipitate as described previously; from tissue; host or cells: plasma cryoprecipitate (VWF); HEK293 Tet-On cells (ADAMTS13)
T2 sequence (P04275 764-2813 limits assumed): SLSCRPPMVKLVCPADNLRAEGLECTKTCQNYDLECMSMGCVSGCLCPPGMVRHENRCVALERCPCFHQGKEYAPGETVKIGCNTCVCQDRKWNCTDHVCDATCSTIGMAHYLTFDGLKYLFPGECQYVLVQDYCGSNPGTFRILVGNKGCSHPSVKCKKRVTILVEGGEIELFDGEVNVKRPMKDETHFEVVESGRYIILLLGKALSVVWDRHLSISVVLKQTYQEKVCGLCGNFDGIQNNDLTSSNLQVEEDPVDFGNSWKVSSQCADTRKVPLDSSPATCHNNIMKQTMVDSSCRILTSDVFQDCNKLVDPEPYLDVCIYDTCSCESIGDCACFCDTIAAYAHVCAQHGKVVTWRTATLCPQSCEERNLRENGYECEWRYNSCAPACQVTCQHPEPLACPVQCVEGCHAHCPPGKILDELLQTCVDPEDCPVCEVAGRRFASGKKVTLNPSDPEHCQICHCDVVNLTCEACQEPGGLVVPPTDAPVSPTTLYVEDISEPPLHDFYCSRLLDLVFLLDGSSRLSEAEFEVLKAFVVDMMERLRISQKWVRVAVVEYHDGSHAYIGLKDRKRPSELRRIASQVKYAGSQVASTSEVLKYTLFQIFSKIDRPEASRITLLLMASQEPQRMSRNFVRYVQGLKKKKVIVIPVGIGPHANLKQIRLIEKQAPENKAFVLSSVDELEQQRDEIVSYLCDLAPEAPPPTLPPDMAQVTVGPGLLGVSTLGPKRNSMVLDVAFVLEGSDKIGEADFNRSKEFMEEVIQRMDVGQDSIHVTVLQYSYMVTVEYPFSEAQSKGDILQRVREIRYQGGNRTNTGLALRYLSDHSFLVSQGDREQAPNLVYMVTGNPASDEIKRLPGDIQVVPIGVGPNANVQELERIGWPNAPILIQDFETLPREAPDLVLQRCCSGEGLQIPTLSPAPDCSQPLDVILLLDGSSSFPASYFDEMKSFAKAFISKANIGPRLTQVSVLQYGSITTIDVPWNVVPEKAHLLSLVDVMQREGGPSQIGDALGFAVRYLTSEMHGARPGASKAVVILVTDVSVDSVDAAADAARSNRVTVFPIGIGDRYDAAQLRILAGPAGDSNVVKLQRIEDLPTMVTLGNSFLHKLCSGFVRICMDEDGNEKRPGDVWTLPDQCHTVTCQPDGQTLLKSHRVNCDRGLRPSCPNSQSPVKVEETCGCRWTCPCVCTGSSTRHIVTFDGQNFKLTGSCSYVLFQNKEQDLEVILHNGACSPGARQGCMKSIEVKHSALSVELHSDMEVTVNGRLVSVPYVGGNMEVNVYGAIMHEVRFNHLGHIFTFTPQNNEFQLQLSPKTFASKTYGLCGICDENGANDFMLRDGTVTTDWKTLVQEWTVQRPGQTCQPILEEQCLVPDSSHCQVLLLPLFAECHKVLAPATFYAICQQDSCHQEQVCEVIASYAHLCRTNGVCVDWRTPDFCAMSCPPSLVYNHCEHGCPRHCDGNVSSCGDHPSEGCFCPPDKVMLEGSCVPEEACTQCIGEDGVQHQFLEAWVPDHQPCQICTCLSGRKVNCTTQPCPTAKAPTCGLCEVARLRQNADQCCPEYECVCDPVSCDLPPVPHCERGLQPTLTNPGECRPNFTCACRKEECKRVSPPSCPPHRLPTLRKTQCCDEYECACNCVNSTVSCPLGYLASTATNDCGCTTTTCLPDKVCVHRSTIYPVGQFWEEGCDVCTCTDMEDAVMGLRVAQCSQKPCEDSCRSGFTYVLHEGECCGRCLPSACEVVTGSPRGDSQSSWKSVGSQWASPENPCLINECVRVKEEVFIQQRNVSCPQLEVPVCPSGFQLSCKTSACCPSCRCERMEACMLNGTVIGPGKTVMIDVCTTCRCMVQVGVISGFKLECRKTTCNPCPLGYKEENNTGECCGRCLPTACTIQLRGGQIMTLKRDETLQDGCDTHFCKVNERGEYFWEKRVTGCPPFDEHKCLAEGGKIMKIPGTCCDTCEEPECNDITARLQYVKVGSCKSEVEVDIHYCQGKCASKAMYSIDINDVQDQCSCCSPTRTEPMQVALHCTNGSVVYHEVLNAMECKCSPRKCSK
As to the kind of experiment: ADAMTS13 cleavage of purified multimeric plasma VWF, multimer pattern on agarose gel. The settings on record: 0.75 and 1.0 mg/ml ristocetin, 37° C., under stasis (FIG. 1A). As to the method:
Cleavage of purified VWF (2 μg/ml) by recombinant ADAMTS13 (0.4 μg/ml) was performed at 37° C. in the absence or presence of urea or ristocetin. The reactions were stopped at the indicated times with EDTA (final concentration 10 mM).
as §1

For test [2], the target named is T3, short A2 (Met1473-Gly1674) (Homo sapiens, UniProt P04275).
T3 construct: short A2 (Met1473-Gly1674); made in house; host or cells: HEK293 Tet-On cells
T3 sequence (P04275 1473-1674): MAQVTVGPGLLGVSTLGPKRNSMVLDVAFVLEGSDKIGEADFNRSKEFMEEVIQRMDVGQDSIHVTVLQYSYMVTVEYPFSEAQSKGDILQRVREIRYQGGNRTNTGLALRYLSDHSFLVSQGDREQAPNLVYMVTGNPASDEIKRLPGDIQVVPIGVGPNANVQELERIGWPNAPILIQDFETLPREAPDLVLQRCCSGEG
Nature of the test: ADAMTS13 cleavage of recombinant VWF fragment short A2 (SDS-PAGE, western blotting). The settings on record: 1.5 M urea or 1.5 mg/ml ristocetin, 37° C., 5 hr (FIG. 4). The text has this: (§4) Recombinant ADAMTS13 (Ala75-Thr1427) and VWF fragments A1A2A3 (Asp1261-Ile1878), long A2 (Asp1459-Gly1674), and short A2 (Met1473-Gly1674) were expressed as fusion proteins with the pNBioSec vector (Mize et al., Protein Expr Purif, 57(2):280-289 (2008)) in HEK293 Tet-On cells as previously described (Chen et al., Blood, 115(3):706-712 (2010)). In this expression system, recombinant proteins were secreted with dual tags: an N-terminal biotin-tag and a C-terminal protein C epitope tag. Serum-free-cell-culture medium containing the secreted recombinant proteins was concentrated 10-fold by centrifugation over an Ultra-10K filter and desalted over Sephadex G25.
(§5) Plasma VWF was purified from cryoprecipitate as described previously (Chen et al., Blood, 115(3):706-712 (2010)). Cleavage of recombinant VWF fragments by ADAMTS13 was carried out at 37° C. for 5 hours with or without modulators. The reactions were stopped by EDTA (final concentration 10 mM). Cleavage products were analyzed by electrophoresis in 4-15% gradient polyacrylamide gels (Bio-Rad Laboratories, Hercules, Calif.) after reduction. […]
(§6) Cleavage of recombinant VWF fragments (1 μg/ml) by ADAMTS13 (0.15 μg/ml) was carried out at 37° C. for 5 hours in the presence of either 1.5 M urea, or 1.5 mg/ml ristocetin. […] Cleavage products were analyzed by electrophoresis in 4-15% gradient polyacrylamide gels after reduction. […]

For the next test, the target named is T4, A1A2A3 (Asp1261-Ile1878) (Homo sapiens, UniProt P04275).
T4 construct: VWF fragments A1A2A3 (Asp1261-Ile1878); made in house; host or cells: HEK293 Tet-On cells
T4 sequence (P04275 1261-1878, one chain of several): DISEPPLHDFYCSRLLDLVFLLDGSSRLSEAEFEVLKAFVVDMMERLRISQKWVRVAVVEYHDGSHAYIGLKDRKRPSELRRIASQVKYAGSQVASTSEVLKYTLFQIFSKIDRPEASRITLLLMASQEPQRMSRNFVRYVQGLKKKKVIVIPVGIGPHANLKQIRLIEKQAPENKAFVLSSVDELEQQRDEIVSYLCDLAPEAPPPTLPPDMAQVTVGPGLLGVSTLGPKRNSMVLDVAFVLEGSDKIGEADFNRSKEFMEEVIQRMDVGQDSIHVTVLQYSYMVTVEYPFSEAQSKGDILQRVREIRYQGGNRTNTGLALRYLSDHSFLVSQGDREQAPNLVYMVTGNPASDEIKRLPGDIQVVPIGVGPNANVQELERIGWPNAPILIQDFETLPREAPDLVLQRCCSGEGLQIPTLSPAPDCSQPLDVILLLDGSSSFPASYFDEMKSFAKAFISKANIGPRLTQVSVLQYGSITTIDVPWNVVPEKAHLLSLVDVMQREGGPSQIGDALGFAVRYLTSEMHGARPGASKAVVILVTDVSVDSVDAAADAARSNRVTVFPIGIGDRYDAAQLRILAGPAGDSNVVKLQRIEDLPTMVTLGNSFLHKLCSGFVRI
As to the kind of experiment: ADAMTS13 cleavage of recombinant VWF fragment A1A2A3 (SDS-PAGE, western blotting). The settings on record: for ADAMTS13 cleavage of A1A2A3: 37° C., 5 hr (FIG. 2).
From the text: as §4, §2, §3

Another test deals with T5, Multimeric VWF (Homo sapiens, UniProt P04275).
T5 construct: purified, multimeric VWF from plasma; from tissue
T5 sequence (P04275 764-2813 limits assumed): as the sequence (P04275 764-2813 limits assumed) above
As to the kind of experiment: Detection of methionine oxidation in VWF by mass spectrometry (HOCl-generating system MPO plus H2O2). As to the method: Multimeric VWF was incubated with an HOC1-generating system containing 25 nM MPO plus H2O2 at various concentrations in PBS (pH 7.4) at 37° C. for 1 hr in the presence or absence of 1.0 mg/ml ristocetin. The oxidation reaction was stopped by the addition of excess free methionine. The oxidized protein was digested with trypsin and the peptides analyzed by nano liquid chromatography-electrospray ionization-tandem mass spectrometry (nanoLC-ESI-MS/MS).

For test [3], the target named is T6, long A2 (Asp1459-Gly1674) (Homo sapiens, UniProt P04275, D1472H).
T6 construct: long A2 (Asp1459-Gly1674); made in house; host or cells: HEK293 Tet-On cells
T6 sequence (P04275 1459-1674 D1472H): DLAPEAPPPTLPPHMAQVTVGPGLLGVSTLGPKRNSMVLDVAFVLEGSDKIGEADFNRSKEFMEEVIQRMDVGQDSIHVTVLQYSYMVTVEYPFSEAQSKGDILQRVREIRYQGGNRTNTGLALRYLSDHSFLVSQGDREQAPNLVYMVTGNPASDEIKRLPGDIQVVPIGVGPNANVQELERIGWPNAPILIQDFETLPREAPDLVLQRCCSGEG
As to the kind of experiment: ADAMTS13 cleavage of recombinant VWF fragment long A2 (SDS-PAGE, western blotting). The settings on record: in the presence of ristocetin, 37° C., 5 hr (FIG. 3).
From the text: as §4, §5, §6

Setting [4] is: 1.0 mg/ml ristocetin versus buffer, 25 nM MPO plus H2O2, 1 hr (FIG. 6A).

Chain of A1A2 fragment (P04275 1261-1674 D1472H limits assumed): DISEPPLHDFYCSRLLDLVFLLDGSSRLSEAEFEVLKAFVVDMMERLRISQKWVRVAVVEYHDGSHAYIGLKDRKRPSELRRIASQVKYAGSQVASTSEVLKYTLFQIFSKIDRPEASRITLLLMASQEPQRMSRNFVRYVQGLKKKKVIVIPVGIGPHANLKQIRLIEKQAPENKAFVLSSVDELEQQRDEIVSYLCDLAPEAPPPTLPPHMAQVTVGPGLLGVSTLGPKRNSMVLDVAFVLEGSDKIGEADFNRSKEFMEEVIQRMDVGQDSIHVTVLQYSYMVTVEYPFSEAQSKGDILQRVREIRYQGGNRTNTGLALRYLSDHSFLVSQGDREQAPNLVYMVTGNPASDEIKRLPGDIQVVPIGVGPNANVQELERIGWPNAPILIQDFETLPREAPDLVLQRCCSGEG
T1 sequence (P04275 764-2813 limits assumed): as the sequence (P04275 764-2813 limits assumed) above

As to `O=C(O)CN(CCN(CC(=O)O)CC(=O)O)CC(=O)O` [EDTA], the “effect on proteolysis of VWF” value at VWF (antibody 20 μg/ml, EDTA 10 mM per methods) is reported as “inhibited”.

For the compound ristocetin, in the test on A1A2 fragment (FIG. 3), the “efficiency of enhancing ADAMTS13 cleavage, A1A2 fragment versus long A2 domain” value is “more efficiently in the A1A2 fragment”. In addition, the “ADAMTS13 cleavage of A1A2 fragment” value with A1A2 fragment (in the presence of ristocetin, 37° C., 5 hr (FIG. 3)) is on record as “able to cleave”. For the same compound, the “effect on ability of recombinant ADAMTS13 to cleave purified multimeric plasma VWF” value in test [1] was “accelerated”. Also, in test [2], the “ADAMTS13 cleavage of short A2 (lacking Asp1459-His1472)” value is “unable to cleave”. In addition, the “ADAMTS13 cleavage of A1A2A3” value at A1A2A3 (Asp1261-Ile1878) was “induced ADAMTS13 to cleave”. Moreover, the “minimum ristocetin concentration producing maximum proteolysis” value on A1A2A3 (Asp1261-Ile1878) (A1A2A3, 37° C., 5 hr, increasing concentrations (FIG. 2B)) is recorded as “approximately 0.8 mg/ml”. Further, at Multimeric VWF (setting [4]), the “oxidation of Met1521 (methionine sulfoxide) in the A2 domain” value is on record as “more oxidized” and the “oxidation of Met1606 (methionine sulfoxide) in the A2 domain” value is given as “more oxidized”. Further, the “extent of methionine oxidation in the A1 domain” value on Multimeric VWF (ristocetin versus buffer, 25 nM MPO and 50 μM H2O2 (FIG. 6B)) is recorded as “much less than in the A2 domain”. At VWF (1.0 mg/ml ristocetin, 10-fold diluted plasma, 37° C., compared with 1.5 M urea (FIG. 1B)), the “effect on ability of endogenous ADAMTS13 to cleave VWF in diluted plasma” value is “enhanced”. In addition, the “ADAMTS13 cleavage of long A2 fragment” value in test [3] was “able to cleave”.

Turning to `CN[C@H](CC(C)C)C(=O)N[C@H]1C(=O)N[C@@H](CC(N)=O)C(=O)N[C@H]2C(=O)N[C@H]3C(=O)N[C@H](C(=O)N[C@H](C(=O)O)c4cc(O)cc(O)c4-c4cc3ccc4O)[C@H](O)c3ccc(c(Cl)c3)Oc3cc2cc(c3O[C@@H]2O[C@H](CO)[C@@H](O)[C@H](O)[C@H]2O[C@H]2C[C@](C)(N)[C@H](O)[C@H](C)O2)Oc2ccc(cc2Cl)[C@H]1O` [vancomycin], on A1A2A3 (Asp1261-Ile1878), the “ADAMTS13 cleavage of A1A2A3” value is given as “not mimicked”.

For the compound `NC(N)=O` [urea], the “ADAMTS13 cleavage of short A2 (lacking Asp1459-His1472)” value in test [2] is “cleaved it normally”.
